Laboratory results published in publication PMC11790914, “Chemogenomics for steroid hormone receptors (NR3)” (Communications Chemistry, 2025).
Where “and” joins values, the source holds several entries; their conditions need not be identical. Identical values can stand only once.

Experiments:
HEK293T cells [1] = test: Cytotoxicity: growth-rate (change in confluence over 24 h); conditions: normalized to 0.1% DMSO control, single replicates (n=1...)
HEK293T cells [2] = test: Cytotoxicity: apoptosis induction (caspase-3/7 DEVD fluorogenic DNA dye); conditions: HEK293T, 24 h, apoptotic cell count normalized to 0.1% DMSO, single replicates
FGFR3 = target: T1, FGFR3 (Homo sapiens, UniProt P22607); test: Liability panel screening by DSF: FGFR3; format: binding; conditions: DSF, 20 µM, n=2; read-out: Mean ΔTM FGFR3
T1 construct: made in house
T1 sequence (P22607 23-806, species assumed): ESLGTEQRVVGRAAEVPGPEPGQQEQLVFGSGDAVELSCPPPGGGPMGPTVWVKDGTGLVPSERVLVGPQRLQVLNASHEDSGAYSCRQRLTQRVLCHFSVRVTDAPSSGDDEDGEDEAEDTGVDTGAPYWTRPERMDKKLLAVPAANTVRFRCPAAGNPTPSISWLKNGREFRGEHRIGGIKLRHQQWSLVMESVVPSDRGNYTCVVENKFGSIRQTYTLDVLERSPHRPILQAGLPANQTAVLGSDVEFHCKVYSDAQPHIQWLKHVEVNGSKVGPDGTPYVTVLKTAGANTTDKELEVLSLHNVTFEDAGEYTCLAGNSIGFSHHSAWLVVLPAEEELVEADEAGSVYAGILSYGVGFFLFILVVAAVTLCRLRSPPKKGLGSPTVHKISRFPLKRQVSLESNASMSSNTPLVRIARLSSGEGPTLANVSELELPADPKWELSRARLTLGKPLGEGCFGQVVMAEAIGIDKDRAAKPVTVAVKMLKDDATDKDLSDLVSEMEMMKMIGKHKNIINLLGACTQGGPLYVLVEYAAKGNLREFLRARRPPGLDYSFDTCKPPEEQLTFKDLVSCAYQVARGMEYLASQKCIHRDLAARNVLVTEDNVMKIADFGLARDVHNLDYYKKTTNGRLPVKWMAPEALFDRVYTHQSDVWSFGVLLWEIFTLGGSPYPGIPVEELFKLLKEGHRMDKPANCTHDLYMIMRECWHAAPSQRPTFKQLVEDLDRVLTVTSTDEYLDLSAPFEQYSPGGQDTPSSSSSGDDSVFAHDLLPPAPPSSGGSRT
Outline: (§1)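 Recombinant protein at 2 µM in 10 mM HEPES pH 7.5 with 500 mM NaCl was mixed with SYPRO Orange (1:1000) and heated at 3 °C/min up to 85 °C. Tm was taken as the Boltzmann-fit inflection point. Shifts are ∆Tm in K from technical duplicates.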

ABL1 = target: T2, ABL1 (Homo sapiens, UniProt P00519); test: Liability panel screening by DSF: ABL1; format: binding; conditions: DSF, 20 µM, n=2; read-out: Mean ΔTM ABL1
T2 construct: made in house
T2 sequence (P00519 whole entry, species assumed): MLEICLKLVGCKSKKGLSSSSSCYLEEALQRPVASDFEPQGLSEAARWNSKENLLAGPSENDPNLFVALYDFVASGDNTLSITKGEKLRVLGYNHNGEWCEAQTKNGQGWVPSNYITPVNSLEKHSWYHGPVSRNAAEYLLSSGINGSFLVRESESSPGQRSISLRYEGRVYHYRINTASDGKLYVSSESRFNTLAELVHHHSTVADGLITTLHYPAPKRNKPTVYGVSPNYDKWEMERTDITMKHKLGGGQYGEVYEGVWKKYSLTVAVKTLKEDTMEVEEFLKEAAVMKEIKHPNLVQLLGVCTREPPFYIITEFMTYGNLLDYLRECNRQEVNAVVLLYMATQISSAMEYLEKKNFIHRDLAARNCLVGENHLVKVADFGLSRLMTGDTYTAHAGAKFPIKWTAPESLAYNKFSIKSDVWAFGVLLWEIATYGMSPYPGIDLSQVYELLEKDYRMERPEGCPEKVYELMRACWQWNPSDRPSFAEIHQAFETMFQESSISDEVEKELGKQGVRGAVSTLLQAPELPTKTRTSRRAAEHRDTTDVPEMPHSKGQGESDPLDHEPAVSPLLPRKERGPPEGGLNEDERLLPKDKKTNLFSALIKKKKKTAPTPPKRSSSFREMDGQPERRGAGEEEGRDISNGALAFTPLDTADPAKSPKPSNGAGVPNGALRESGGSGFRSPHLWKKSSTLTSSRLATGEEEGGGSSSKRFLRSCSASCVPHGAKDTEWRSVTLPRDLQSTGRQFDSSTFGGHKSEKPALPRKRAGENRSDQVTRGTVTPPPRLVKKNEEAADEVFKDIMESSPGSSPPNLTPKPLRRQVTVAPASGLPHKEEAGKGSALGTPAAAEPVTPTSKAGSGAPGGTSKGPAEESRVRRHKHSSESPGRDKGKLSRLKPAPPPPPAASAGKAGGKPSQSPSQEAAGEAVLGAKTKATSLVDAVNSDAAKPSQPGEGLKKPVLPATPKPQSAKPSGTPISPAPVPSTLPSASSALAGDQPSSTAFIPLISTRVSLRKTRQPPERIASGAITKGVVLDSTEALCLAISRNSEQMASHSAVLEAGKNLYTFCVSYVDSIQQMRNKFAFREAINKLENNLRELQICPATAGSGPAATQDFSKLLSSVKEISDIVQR
Outline: as §1

BRPF1 = target: T3, BRPF1 (Homo sapiens, UniProt P55201); test: Liability panel screening by DSF: BRPF1; format: binding; conditions: DSF, 20 µM, n=2; read-out: Mean ΔTM BRPF1
T3 construct: This panel comprised ten highly ligandable kinases and bromodomains; made in house
T3 sequence (P55201 628-732 limits assumed): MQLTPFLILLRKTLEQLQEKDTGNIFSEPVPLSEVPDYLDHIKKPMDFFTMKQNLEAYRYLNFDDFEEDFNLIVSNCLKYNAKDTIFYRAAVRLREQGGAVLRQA
Outline: as §1

CDK2 = target: T4, CDK2 (Homo sapiens, UniProt P24941); test: Liability panel screening by DSF: CDK2; format: binding; conditions: DSF, 20 µM, n=2; read-out: Mean ΔTM CDK2
T4 construct: made in house
Outline: as §1

[3] = tested on: ATF6 activity in Hela ATF6 reporter cells; test: Endoplasmic reticulum stress assay (ATF6 Renilla luciferase reporter, tunicamycin); format: cell-based
Outline: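 HeLa ATF6 Renilla reporter cells were pretreated 4 h with compounds in 0.1% DMSO, then stimulated with tunicamycin (100 ng/mL) for 18 h. Renilla luminescence (DualGlo) was normalized to 0.1% DMSO control; five independent experiments.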

MAPK1 = target: T5, MAPK1 (Homo sapiens, UniProt P28482); test: Liability panel screening by DSF: MAPK1; format: binding; conditions: DSF, 20 µM, n=2; read-out: Mean ΔTM MAPK1
T5 construct: made in house
T5 sequence (P28482 whole entry, species assumed): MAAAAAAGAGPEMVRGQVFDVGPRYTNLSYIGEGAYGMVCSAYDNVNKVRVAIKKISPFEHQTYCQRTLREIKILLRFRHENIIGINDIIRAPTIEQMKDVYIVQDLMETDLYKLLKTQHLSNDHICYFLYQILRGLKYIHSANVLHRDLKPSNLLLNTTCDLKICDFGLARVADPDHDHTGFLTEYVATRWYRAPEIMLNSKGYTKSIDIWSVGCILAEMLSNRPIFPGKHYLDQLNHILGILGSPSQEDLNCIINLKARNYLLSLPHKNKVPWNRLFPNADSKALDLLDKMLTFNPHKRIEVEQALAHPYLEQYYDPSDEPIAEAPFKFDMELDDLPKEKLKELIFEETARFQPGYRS
Outline: as §1

BRD4 = target: T6, BRD4 (Homo sapiens, UniProt O60885); test: Liability panel screening by DSF: BRD4; format: binding; conditions: DSF, 20 µM, n=2; read-out: Mean ΔTM BRD4
T6 construct: This panel comprised ten highly ligandable kinases and bromodomains; made in house
Outline: as §1

NR3B3 (ERRγ) = conditions: ref Supplementary Table 1, cited from earlier work
TRIM24 = target: T7, TRIM24 (Homo sapiens, UniProt O15164); test: Liability panel screening by DSF: TRIM24; format: binding; conditions: DSF, 20 µM, n=2; read-out: Mean ΔTM TRIM24
T7 construct: This panel comprised ten highly ligandable kinases and bromodomains; made in house
T7 sequence (O15164 899-1004 limits assumed): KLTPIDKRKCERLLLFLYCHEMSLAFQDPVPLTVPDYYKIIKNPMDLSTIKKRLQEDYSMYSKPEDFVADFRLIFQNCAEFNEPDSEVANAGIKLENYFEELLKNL
Outline: as §1

AURKA = target: T8, AURKA (Homo sapiens, UniProt O14965); test: Liability panel screening by DSF: AURKA; format: binding; conditions: DSF, 20 µM, n=2; read-out: Mean ΔTM AURKA
T8 construct: made in house
T8 sequence (O14965 1-403): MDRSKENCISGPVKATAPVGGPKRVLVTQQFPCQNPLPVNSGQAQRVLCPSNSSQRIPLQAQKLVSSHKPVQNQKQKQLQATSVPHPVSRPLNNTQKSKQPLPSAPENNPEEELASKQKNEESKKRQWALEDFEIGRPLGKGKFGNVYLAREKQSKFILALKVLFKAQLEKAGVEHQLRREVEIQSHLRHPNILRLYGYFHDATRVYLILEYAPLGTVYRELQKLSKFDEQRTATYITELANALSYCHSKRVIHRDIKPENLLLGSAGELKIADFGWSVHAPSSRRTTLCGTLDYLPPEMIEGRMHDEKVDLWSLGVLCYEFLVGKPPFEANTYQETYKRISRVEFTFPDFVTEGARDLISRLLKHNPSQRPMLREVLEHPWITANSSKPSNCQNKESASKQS
Outline: as §1

[4] = tested on: NF-κB activity in HEK293 NF-κB reporter cells; test: NF-kB activity assay (GFP reporter, ionomycin/PMA); format: cell-based; conditions: n=3
Outline: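 HEK293 NF-κB GFP reporter cells given compound in 0.1% DMSO for 4 h, then stimulated with ionomycin 100 ng/mL plus PMA 10 ng/mL. Imaged every 90 min over 24 h; GFP-positive cell count normalized to confluence, three independent biological replicates.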

HEK293T cells [5] = test: Cytotoxicity: metabolic activity (WST-8 / CCK-8 assay); conditions: HEK293T, 24 h, WST-8, normalized to 0.1% DMSO, single replicates
Description: Cells were incubated with the test compounds at the indicated concentrations solubilized with 0.1% DMSO for 24 h. Growth-rate was determined based on the change in confluence over 24 h normalized to the change in confluence of cells treated with the 0.1% DMSO control (n = 10). Metabolic activity was determined with a water-soluble tetrazolium-8 (WST-8) assay (n = 8) after 24 h treatment. Apoptotic cells were detected with a fluorogenic DNA dye coupled to the caspase-3/7 recognition sequence (DEVD) after 24 h treatment and the apoptotic cell count was normalized to 0.1% DMSO treated cells (n = 6).
HEK293T cells (German Collection of Microorganisms and Cell Culture GmbH, DSMZ; #ACC305) were cultured in DMEM high glucose, supplemented with 10% fetal calf serum (FCS), sodium pyruvate (1 mM), penicillin (100 µ/mL) and streptomycin (100 µg/mL) at 37 °C and 5% (v/v) CO2, and seeded in pre-coated (10 µg/mL collagen G solution (Merck KgaA; #L7213) for 30 min at 37 °C) 96-well plates (2 × 10^5 cells per well). After 24 h, the cells were treated with the respective NR3 CG compound candidate at the recommended concentration, bexarotene (100 µM) or doxorubicin (30 µM) as positive controls in DMEM high glucose supplemented with 0.1% FCS, penicillin (100 µ/mL), streptomycin (100 µg/mL) and 0.1% DMSO, or 0.1% DMSO alone as an untreated control. Each sample was prepared in at least four biologically independent replicates. […] Thereafter, the medium was aspirated and the cells were incubated for 3 h with 90 µL DMEM high glucose supplemented with 0.2% FCS, penicillin (100 µ/mL) and streptomycin (100 µg/mL) and additionally containing 10 µL Cell Counting Kit 8 solution (CCK-8; MedChemExpress, Monmouth Junction, New York, USA; #HY-K0301), and absorbance was measured at 1 h, 2 h and 3 h of incubation at 450 nm on a Tecan Spark Cyto to assess metabolic activity of the cells. Before drug administration, after the first medium exchange, 24 h after drug administration, and after fluorescence imaging cell confluence was assessed using the Tecan Spark Cyto, to account for changes in cell confluence due to drug administration and cell handling. Compound effects on cell confluence, apoptosis, metabolic activity and necrosis were normalized to the vehicle control of each biological replicate individually.

HEK293T cells [6] = test: Cytotoxicity: necrosis induction (red fluorescent dye for permeable plasma membranes); format: cell-based; conditions: 24 h, necrotic cell count normalized to 0.1% DMSO, single replicates;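 note: compounds applied in DMEM high glucose with 0.1% FCS and 0.1% DMSO, necrotic HEK293T cells counted by red staining of cells whose plasma membranes had become permeable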
NR3B2 (ERRβ) = conditions: ref Supplementary Table 1; cited from earlier work
GSK3B = target: T9, GSK3B (Homo sapiens, UniProt P49841); test: Liability panel screening by DSF: GSK3B; format: binding; conditions: DSF, 20 µM, n=2; read-out: Mean ΔTM GSK3B
T9 construct: made in house
T9 sequence (P49841 whole entry, species assumed): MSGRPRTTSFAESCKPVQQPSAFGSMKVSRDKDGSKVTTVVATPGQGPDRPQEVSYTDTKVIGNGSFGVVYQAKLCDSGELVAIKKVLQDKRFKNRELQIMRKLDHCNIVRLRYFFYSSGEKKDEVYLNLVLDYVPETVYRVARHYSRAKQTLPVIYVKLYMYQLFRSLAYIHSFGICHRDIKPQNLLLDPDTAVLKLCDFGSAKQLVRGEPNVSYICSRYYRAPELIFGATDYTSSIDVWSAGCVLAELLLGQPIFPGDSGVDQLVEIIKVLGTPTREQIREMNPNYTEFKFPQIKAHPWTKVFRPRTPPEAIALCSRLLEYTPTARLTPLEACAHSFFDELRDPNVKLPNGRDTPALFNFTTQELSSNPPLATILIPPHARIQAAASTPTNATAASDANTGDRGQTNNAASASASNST

CSNK1D = target: T10, CSNK1D (Homo sapiens, UniProt P48730); test: Liability panel screening by DSF: CSNK1D; format: binding; conditions: DSF, 20 µM, n=2; read-out: Mean ΔTM CSNK1D
T10 construct: made in house
T10 sequence (P48730 whole entry, species assumed): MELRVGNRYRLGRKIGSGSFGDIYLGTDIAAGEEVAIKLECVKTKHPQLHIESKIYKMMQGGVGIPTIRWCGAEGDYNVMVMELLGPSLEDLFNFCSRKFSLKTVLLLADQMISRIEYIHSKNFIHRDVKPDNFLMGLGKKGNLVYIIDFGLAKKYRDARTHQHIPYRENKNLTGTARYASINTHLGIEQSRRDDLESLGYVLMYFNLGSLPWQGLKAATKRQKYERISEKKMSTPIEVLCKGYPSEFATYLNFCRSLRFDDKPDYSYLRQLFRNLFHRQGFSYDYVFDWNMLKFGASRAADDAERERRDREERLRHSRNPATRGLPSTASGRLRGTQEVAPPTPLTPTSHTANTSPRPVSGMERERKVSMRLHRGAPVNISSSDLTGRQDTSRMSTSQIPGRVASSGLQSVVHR
Outline: as §1

Gal4-VP16 = format: cell-based; conditions: 3 µM; vs. DMSO ctrl; single replicates n=1-3

SMILES: CC(C)(c1ccc(O)cc1)c1ccc(O)cc1 [Bisphenol A]
- Growth rate [GR] (HEK293T cells [1]; 0.3 µM): 0.54 and 1.52 and 0.90 (2×) and 1.13 and 0.87 and 0.95 and 0.88 and 2.38 and 0.44
- Apoptosis induction [AI] (HEK293T cells [2]; 0.3 µM): 0.73 and 0.80 and 0.66 and 1.02 and 0.52 and 0.91
- ΔTm at 20 µM (FGFR3): 0.44 °C
- ΔTm at 20 µM (ABL1): 0.26 °C
- ΔTm at 20 µM (BRPF1): -2.21 °C
- ΔTm at 20 µM (CDK2): 1.16 °C
- activity at 0.3 µM ([3]; Homo sapiens, HeLa, 0.3 µM, single replicates n=1 to n=5, read-out: ER stress [rel. ATF6 activity]): 96%
- ΔTm at 20 µM (MAPK1): 0.26 °C
- ΔTm at 20 µM (BRD4): -2.63 °C
- IC50 (NR3B3 (ERRγ); (lit.), read-out: Potency [nM] IC50, NR3B3 (ERRγ)): 13 ± 2 nM
- ΔTm at 20 µM (TRIM24): -1.35 °C
- ΔTm at 20 µM (AURKA): 0.19 °C
- Mean NFκB response ([4]; 0.3 µM, 1,5 h): 2380.54 GFP+-cells/confluence ∙ 1000
- Mean NFκB response ([4]; 0.3 µM, 4,5 h): 2758.19 GFP+-cells/confluence ∙ 1000
- Mean NFκB response ([4]; 0.3 µM, 7,5 h): 7233.84 GFP+-cells/confluence ∙ 1000
- Mean NFκB response ([4]; 0.3 µM, 10,5 h): 19121.46 GFP+-cells/confluence ∙ 1000
- Mean NFκB response ([4]; 0.3 µM, 13,5 h): 28203.30 GFP+-cells/confluence ∙ 1000
- Mean NFκB response ([4]; 0.3 µM, 16,6 h): 34624.31 GFP+-cells/confluence ∙ 1000
- Mean NFκB response ([4]; 0.3 µM, 19,5 h): 39396.74 GFP+-cells/confluence ∙ 1000
- Mean NFκB response ([4]; 0.3 µM, 22,5 h): 42069.32 GFP+-cells/confluence ∙ 1000
- Mean NFκB response ([4]; 0.3 µM, 3 h): 2422.37 GFP+-cells/confluence ∙ 1000
- Mean NFκB response ([4]; 0.3 µM, 6 h): 3882.85 GFP+-cells/confluence ∙ 1000
- Mean NFκB response ([4]; 0.3 µM, 9 h): 13703.44 GFP+-cells/confluence ∙ 1000
- Mean NFκB response ([4]; 0.3 µM, 12 h): 24104.26 GFP+-cells/confluence ∙ 1000
- Mean NFκB response ([4]; 0.3 µM, 15 h): 31750.86 GFP+-cells/confluence ∙ 1000
- Mean NFκB response ([4]; 0.3 µM, 18 h): 37025.53 GFP+-cells/confluence ∙ 1000
- Mean NFκB response ([4]; 0.3 µM, 21 h): 40865.92 GFP+-cells/confluence ∙ 1000
- Mean NFκB response ([4]; 0.3 µM, 24 h): 43618.62 GFP+-cells/confluence ∙ 1000
- Metabolic activity [MA] (HEK293T cells [5]; 0.3 µM): 1.05 (2×) and 0.84 and 0.94 and 1.07 and 0.99 (2×) and 1.13
- Necrosis induction [NI] (HEK293T cells [6]; 0.3 µM): 0.87 and 0.82 and 0.90 and 1.20

SMILES: CC(C)c1ccc(/C=N/NC(=O)c2ccc(O)cc2)cc1 [GSK4716]
- Growth rate [GR] (HEK293T cells [1]; 3 µM): 0.56 and 4.17 and 0.59 and 0.95 and 0.79 and 0.39 and 0.32 and 1.23 and 0.96 and 33.22
- Apoptosis induction [AI] (HEK293T cells [2]; 3 µM): 1.16 and 0.91 and 0.96 and 0.89 and 0.51 and 0.66
- ΔTm at 20 µM (FGFR3): 0.7 °C
- ΔTm at 20 µM (ABL1): 1.07 °C
- ΔTm at 20 µM (BRPF1): 0.6 °C
- ΔTm at 20 µM (CDK2): 1.04 °C
- ATF6 activity (tunicamycin-induced endoplasmic reticulum stress) ([3]; Hela ATF6 reporter cells, tunicamycin 100 ng/mL, 18 h, compounds at recommended concentrations, n = 5): strongly ameliorated the tunicamycin-induced endoplasmic reticulum stress
- activity at 3 µM ([3]; Homo sapiens, HeLa, 3 µM, single replicates n=1 to n=5, read-out: ER stress [rel. ATF6 activity]): 15%
- rel. activity from literature, NR3B2 (ERRβ): fold activation (NR3B2 (ERRβ)): 10 fold
- ΔTm at 20 µM (MAPK1): 0.09 °C
- ΔTm at 20 µM (BRD4): -0.72 °C
- ΔTm at 20 µM (GSK3B): -3.45 °C
- rel. activity from literature, NR3B3 (ERRγ): fold activation (NR3B3 (ERRγ)): 6 fold
- ΔTm at 20 µM (TRIM24): 0.64 °C
- ΔTm at 20 µM (CSNK1D): -0.73 °C
- ΔTm at 20 µM (AURKA): 0.71 °C
- VP16 control [fold reporter gene activity] (Gal4-VP16): 1.46 fold reporter gene activity and 1.30 fold reporter gene activity and 1.47 fold reporter gene activity
- Mean NFκB response ([4]; 3 µM, 1,5 h): 3350.67 GFP+-cells/confluence ∙ 1000
- Mean NFκB response ([4]; 3 µM, 4,5 h): 4011.96 GFP+-cells/confluence ∙ 1000
- Mean NFκB response ([4]; 3 µM, 7,5 h): 8902.65 GFP+-cells/confluence ∙ 1000
- Mean NFκB response ([4]; 3 µM, 10,5 h): 19241.33 GFP+-cells/confluence ∙ 1000
- Mean NFκB response ([4]; 3 µM, 13,5 h): 27824.67 GFP+-cells/confluence ∙ 1000
- Mean NFκB response ([4]; 3 µM, 16,6 h): 34184.33 GFP+-cells/confluence ∙ 1000
- Mean NFκB response ([4]; 3 µM, 19,5 h): 38593.33 GFP+-cells/confluence ∙ 1000
- Mean NFκB response ([4]; 3 µM, 22,5 h): 41930.00 GFP+-cells/confluence ∙ 1000
- Mean NFκB response ([4]; 3 µM, 3 h): 3264.72 GFP+-cells/confluence ∙ 1000
- Mean NFκB response ([4]; 3 µM, 6 h): 5255.77 GFP+-cells/confluence ∙ 1000
- Mean NFκB response ([4]; 3 µM, 9 h): 14135.33 GFP+-cells/confluence ∙ 1000
- Mean NFκB response ([4]; 3 µM, 12 h): 23629.33 GFP+-cells/confluence ∙ 1000
- Mean NFκB response ([4]; 3 µM, 15 h): 31599.67 GFP+-cells/confluence ∙ 1000
- Mean NFκB response ([4]; 3 µM, 18 h): 36410.00 GFP+-cells/confluence ∙ 1000
- Mean NFκB response ([4]; 3 µM, 21 h): 40543.33 GFP+-cells/confluence ∙ 1000
- Mean NFκB response ([4]; 3 µM, 24 h): 43546.67 GFP+-cells/confluence ∙ 1000
- Metabolic activity [MA] (HEK293T cells [5]; 3 µM): 1.04 and 0.92 and 0.86 and 0.83 and 0.84 (2×) and 0.81 and 0.76
- Necrosis induction [NI] (HEK293T cells [6]; 3 µM): 0.73 and 0.72 and 1.06 and 0.88
